Measured values reported in patent publication US20210324041A1, “COMBINATION THERAPIES” (Shattuck Labs, Inc., priority 2018, published 2021).

Key:
In vivo toxicity in mice = assay: In vivo toxicity in mice
Protocol: (§1) Mice were administered a vehicle or the murine CSF1R-Fc-CD40L chimeric protein and Cynomolgus Macaques were administered a vehicle or the human CSF1R-Fc-CD40L chimeric protein and the relative amount of various cytokines (e.g., CCL4, IL-18, IL-23, and IL-10) were detected and quantified.

[1] = In vivo toxicity in monkeys
Protocol: as §1

[2] = system: CT26 (murine colon carcinoma) tumor cells; assay: In vivo anti-tumor activity of combinations of antibodies directed to immune checkpoint molecules and chimeric proteins (CT26 tumor model); design: species or system BALB/C mice; conditions: for tumor volume: relative to vehicle, until the 35th day, antibodies three doses of 100 μg, chimeric protein three doses of 300 μg
Protocol: The in vivo ability of specific combinations of antibodies directed to immune checkpoint molecules and chimeric proteins to target and reduce tumor volume was determined.
BALB/C mice were inoculated with 500,000 CT26 (murine colon carcinoma) tumor cells. Eight days after inoculation, there was no significant difference between starting tumor volumes among the mice, i.e., volumes were approximately 100 mm^3. Specific combinations were included: anti-CTLA-4 (9D9); anti-PD-1 (RMP1-14); anti-OX40 (OX86); PD1-Fc-OX40L; CSF1R-Fc-CD40L (FIG. 3B); anti-CTLA-4 then anti-PD1; anti-CTLA-4 then anti-OX40; anti-CTLA-4 then PD1-Fc-OX40L; anti-CTLA-4 then CSF1R-Fc-CD40L (FIG. 3C); PD1-Fc-OX40L then anti-CTLA-4; and CSF1R-Fc-CD40L then anti-CTLA-4 (FIG. 3D); anti-CTLA-4 then CSF1R-Fc-CD40L; CSF1R-Fc-CD40L then anti-CTLA-4; and CSF1R-Fc-CD40L with anti-CTLA-4 (FIG. 3E and FIG. 3F); and anti-PD-1 then CSF1R-Fc-CD40L; CSF1R-Fc-CD40L then anti-PD-1; and CSF1R-Fc-CD40L with anti-PD-1 (FIG. 4A and FIG. 4B).
In the experiments shown in FIG. 3A to FIG. 3D, tumor sizes were assayed every other day until the 27th day after inoculation. Mice that rejected the tumor were re-challenged with a secondary tumor (300,000 CT26 tumor cells) on the opposing flank, and primary/secondary tumors continued to be measured. In the experiments shown in FIG. 3E to FIG. 4B, tumor sizes were assayed every other day until the 35th day after inoculation. Mice that rejected the tumor were re-challenged with a secondary tumor (300,000 CT26 tumor cells) on the opposing flank, and primary/secondary tumors continued to be measured. Antibodies were given as three doses of 100 μg, the chimeric protein was given as three doses of 300 μg, with antibodies administered before, after, and simultaneously with the chimeric protein (days 7, 9, & 11; or days 12, 14, & 16).

[3] = system: CT26 (murine colon carcinoma) tumor cells; assay: In vivo anti-tumor activity of combinations of a STING agonist and chimeric proteins (CT26 tumor model); design: species or system BALB/C mice; conditions: for effectiveness of combination by order of administration: chimeric protein provided after DMXAA relative to DMXAA following the chimeric protein
Protocol: The in vivo ability of specific combinations of a stimulator of interferon genes (STING) agonist and chimeric proteins to target and reduce tumor volume was determined.
BALB/C mice were inoculated with 500,000 CT26 (murine colon carcinoma) tumor cells. Eight days after inoculation, there was no significant difference between starting tumor volumes among the mice, i.e., volumes were approximately 100 mm^3. Specific combinations were included: DMXAA; anti-PD-1 (RMP1-14); anti-OX40 (OX86); PD1-Fc-OX40L; CSF1R-Fc-CD40L (FIG. 8A); DMXAA then anti-PD1; DMXAA then anti-OX40; DMXAA then PD1-Fc-OX40L; DMXAA then CSF1R-Fc-CD40L (FIG. 8B); PD1-Fc-OX40L then […]; and CSF1R-Fc-CD40L then DMXAA (FIG. 8C). Tumor sizes were assayed every other day until the 27th day after inoculation. Mice that rejected the tumor were re-challenged with a secondary tumor (300,000 CT26 tumor cells) on the opposing flank, and primary/secondary tumors continued to be measured.

[4] = system: various cytokines (e.g., CCL4, IL-18, IL-23, and IL-10); assay: In vivo serum cytokine expression in Cynomolgus Macaques (Luminex); design: species or system Cynomolgus Macaque; conditions: monkeys; human CSF1R-Fc-CD40L; relative to vehicle; FIG. 10
Protocol: (§2) The ability of the CSF1R-Fc-CD40L chimeric protein to induce in vivo cytokine expression in mice and in a non-human primate (Cynomolgus Macaque) was determined.
as §1

[5] = system: various cytokines (e.g., CCL4, IL-18, IL-23, and IL-10); assay: In vivo serum cytokine expression in mice (Luminex); conditions: murine CSF1R-Fc-CD40L, relative to vehicle, FIG. 10
Protocol: as §2, §1

For “CSF1R-Fc-CD40L: chimeric protein: extracellular region of CSF1R, linker comprising a hinge-CH2-CH3 Fc region, extracellular region of CD40L; murine and human versions used”, the in vivo toxicity (In vivo toxicity in mice) was “no in vivo toxicity was observed”, the in vivo toxicity [1] was “no in vivo toxicity was observed” and the “anti-tumor effects compared among treatment groups” value ([2]; FIG. 3E (anti-CTLA-4 series)) was “Roughly comparable amounts of anti-tumor effects”. The “anti-tumor effects compared among treatment groups” value ([2]; FIG. 4A (anti-PD-1 series)) was “Roughly comparable amounts of anti-tumor effects”, the survivors ([2]; by 30 days after inoculation) was “no survivors” and the “improvement in tumor volume reduction by order of administration” value ([2]; chimeric protein administered after the anti-CTLA-4 antibody, FIG. 3C, 3D) was “most significant improvement”. The tumor volume ([2]; FIG. 3E (anti-CTLA-4 series)) was “effective in reducing tumor volume”, the tumor volume ([2]; FIG. 4A (anti-PD-1 series)) was “effective in reducing tumor volume” and the “effectiveness of combination by order of administration” value [3] was “more effective”. The serum cytokine levels [4] was “greatly enhanced” and the serum cytokine levels [5] was “greatly enhanced”.

With Cc1ccc2c(=O)c3cccc(CC(=O)O)c3oc2c1C [DMXAA, 5,6-dimethylxanthenone-4-acetic acid, reference compound] the “anti-tumor activity as a monotherapy” value ([3]; FIG. 8A) was “effective anti-tumor agent”.

B1: PD1-Fc-OX40L: chimeric protein: extracellular domain of PD-1, linker comprising a hinge-CH2-CH3 Fc domain, extracellular domain of OX40L (protein)
chain: LDSPDRPWNPPTFSPALLVVTEGDNATFTCSFSNTSESFVLNWYRMSPSNQTDKLAAFPEDRSQPGQDCRFRVTQLPNGRDFHMSVVRARRNDSGTYLCGAISLAPKAQIKESLRAELRVTERRAEVPTAHPSPSPRPAGQFQSKYGPPCPPCPAPEFLGGPSVFLFPPKPKDQLMISRTPEVTCVVVDVSQEDPEVQFNWYVDGVEVHNAKTKPREEQFNSTYRVVSVLTVLHQDWLSGKEYKCKVSSKGLPSSIEKTISNATGQPREPQVYTLPPSQEEMTKNQVSLTCLVKGFYPSDIAVEWESNGQPENNYKTTPPVLDSDGSFFLYSRLTVDKSRWQEGNVFSCSVLHEALHNHYTQKSLSLSLGKIEGRMDQVSHRYPRIQSIKVQFTEYKKEKGFILTSQKEDEIMKVQNNSVIINCDGFYLISLKGYFSQEVNISLHYQKDEEPLFQLKKVRSVNSLMVASLTYKDKVYLNVTTDNTSLDDFHVNGGELILIHQNPGEFCVL
For B1, the “effectiveness of combination by order of administration” value [3] was “more effective”.
